According to US10988477B2 (Merck Patent GmbH, priority 2018, dated 2021):

Molecular target: GCN2 kinase (Homo sapiens, UniProt Q9P2K8)
Assay: GCN2 enzyme inhibition assay (Transcreener ADP2 fluorescence polarization)
Type: biochemical
Conditions: Enzyme activity for compounds of Formula IV; Ki(app), 280 μM ATP, 25° C.
Summary of the method: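 Human GCN2 (4 nM) preincubated 10 min with compound (0–8 μM) and 200 μM (RS)7 peptide in Tris-HCl pH 7.5, NaCl, MgCl2, DTT. Reaction started with 280 μM ATP, run 1 h at 25 °C. ADP detected by Transcreener fluorescence polarization. IC50 and Ki(app) fitted by tight-binding algorithm.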

GCN2 kinase, sequence (Q9P2K8 whole entry): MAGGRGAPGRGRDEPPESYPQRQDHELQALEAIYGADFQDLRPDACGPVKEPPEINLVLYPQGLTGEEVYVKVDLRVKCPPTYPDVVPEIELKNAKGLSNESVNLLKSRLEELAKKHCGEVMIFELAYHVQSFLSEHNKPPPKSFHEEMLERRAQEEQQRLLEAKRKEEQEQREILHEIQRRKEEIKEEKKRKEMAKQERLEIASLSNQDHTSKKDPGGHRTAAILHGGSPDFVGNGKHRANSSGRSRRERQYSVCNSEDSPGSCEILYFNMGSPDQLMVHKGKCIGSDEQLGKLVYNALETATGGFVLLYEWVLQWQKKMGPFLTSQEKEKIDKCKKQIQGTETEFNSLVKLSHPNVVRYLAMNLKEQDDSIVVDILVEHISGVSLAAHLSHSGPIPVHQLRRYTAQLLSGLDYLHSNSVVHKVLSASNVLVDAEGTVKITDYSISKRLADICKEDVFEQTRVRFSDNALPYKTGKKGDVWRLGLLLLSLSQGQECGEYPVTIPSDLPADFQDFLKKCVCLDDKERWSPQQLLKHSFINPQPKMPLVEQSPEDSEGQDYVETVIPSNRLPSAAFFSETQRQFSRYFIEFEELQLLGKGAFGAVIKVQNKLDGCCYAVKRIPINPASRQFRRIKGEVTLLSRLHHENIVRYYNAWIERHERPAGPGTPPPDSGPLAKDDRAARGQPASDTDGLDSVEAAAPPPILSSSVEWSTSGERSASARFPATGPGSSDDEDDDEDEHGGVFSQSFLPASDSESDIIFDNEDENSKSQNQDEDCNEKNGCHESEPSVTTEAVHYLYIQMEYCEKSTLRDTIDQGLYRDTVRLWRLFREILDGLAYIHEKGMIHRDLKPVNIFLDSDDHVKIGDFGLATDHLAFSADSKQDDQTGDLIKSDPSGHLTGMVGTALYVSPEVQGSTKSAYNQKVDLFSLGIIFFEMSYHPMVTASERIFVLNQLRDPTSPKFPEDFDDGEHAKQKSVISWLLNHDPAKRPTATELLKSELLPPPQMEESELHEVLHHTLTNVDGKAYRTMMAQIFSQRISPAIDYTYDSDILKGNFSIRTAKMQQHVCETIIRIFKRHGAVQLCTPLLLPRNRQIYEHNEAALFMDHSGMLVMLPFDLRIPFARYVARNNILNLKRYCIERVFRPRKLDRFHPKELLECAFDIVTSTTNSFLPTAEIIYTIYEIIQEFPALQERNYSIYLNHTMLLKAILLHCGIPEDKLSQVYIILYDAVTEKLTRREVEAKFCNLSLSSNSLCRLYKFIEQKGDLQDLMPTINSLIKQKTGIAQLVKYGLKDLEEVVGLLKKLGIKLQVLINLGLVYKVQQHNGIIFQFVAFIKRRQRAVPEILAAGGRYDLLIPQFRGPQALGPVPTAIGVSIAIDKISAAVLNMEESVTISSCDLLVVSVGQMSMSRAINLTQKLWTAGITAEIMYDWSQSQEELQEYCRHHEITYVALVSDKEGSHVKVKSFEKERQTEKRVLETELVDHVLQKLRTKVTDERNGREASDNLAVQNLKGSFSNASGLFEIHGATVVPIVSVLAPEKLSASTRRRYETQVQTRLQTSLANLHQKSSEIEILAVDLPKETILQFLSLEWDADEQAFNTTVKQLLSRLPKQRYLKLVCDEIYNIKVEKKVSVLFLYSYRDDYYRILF

`NC(=O)CC1CCN(c2ccnc(-c3cnc4cnc(C(F)(F)F)cn34)n2)CC1` [IV-605, 2-(1-(2-(6-(Trifluoromethyl)imidazo[1,2-a]pyrazin-3-yl)pyrimidin-4-yl)piperidin-4-yl)acetamide] and `NC(=O)C1CCN(c2ccnc(-c3cnc4cnc(C(F)(F)F)cn34)n2)CC1` [IV-611, 1-(2-(6-(Trifluoromethyl)imidazo[1,2-a]pyrazin-3-yl)pyrimidin-4-yl)piperidine-4-carboxamide] fall in the same range of Ki: 0.1 to 1 µM for the first, 0.1 to 1 µM for the second.

`FC(F)(F)c1cn2c(-c3nccc(N4CCCC5(CCOC5)C4)n3)cnc2cn1` (centres unmarked) [IV-496, 7-(2-(6-(Trifluoromethyl)imidazo[1,2-a]pyrazin-3-yl)pyrimidin-4-yl)-2-oxa-7-azaspiro[4.5]decane] and `FC(F)(F)c1cn2c(-c3nccc(N4CCC5(CC4)COC5)n3)cnc2cn1` [IV-511, 7-(2-(6-(Trifluoromethyl)imidazo[1,2-a]pyrazin-3-yl)pyrimidin-4-yl)-2-oxa-7-azaspiro[3.5]nonane] fall in the same range of Ki: 0.1 to 1 µM for the first, 0.1 to 1 µM for the second.

`CNC(=O)C1CCN(c2ccnc(-c3cnc4cnc(C(F)(F)F)cn34)n2)C1` (centres unmarked) [IV-625, N-Methyl-1-(2-(6-(trifluoromethyl)imidazo[1,2-a]pyrazin-3-yl)pyrimidin-4-yl)pyrrolidine-3-carboxamide] and `NC(=O)C1CCN(c2ccnc(-c3cnc4cnc(C(F)(F)F)cn34)n2)C1` (centres unmarked) [IV-598, 1-(2-(6-(Trifluoromethyl)imidazo[1,2-a]pyrazin-3-yl)pyrimidin-4-yl)pyrrolidine-3-carboxamide] fall in the same range of Ki: 0.1 to 1 µM for the first, 0.1 to 1 µM for the second.

`FC(F)(F)c1cn2c(-c3nccc(N4CCCC(c5nnco5)C4)n3)cnc2cn1` (centres unmarked) [IV-656, 2-(1-(2-(6-(Trifluoromethyl)imidazo[1,2-a]pyrazin-3-yl)pyrimidin-4-yl)piperidin-3-yl)-1,3,4-oxadiazole] and `O=c1nc(C2CCCN(c3ccnc(-c4cnc5cnc(C(F)(F)F)cn45)n3)C2)[nH][nH]1` (centres unmarked) [IV-660, 5-(1-(2-(6-(Trifluoromethyl)imidazo[1,2-a]pyrazin-3-yl)pyrimidin-4-yl)piperidin-3-yl)-1,2-dihydro-3H-1,2,4-triazol-3-one] fall in the same range of Ki: 0.1 to 1 µM for the first, 0.1 to 1 µM for the second.

Compared with `CC(=O)N1CCN(c2cccc(-c3cnc4cnc(C(=O)N(C)C)cn34)n2)CC1` [IV-276, 3-(6-(4-Acetylpiperazin-1-yl)pyridin-2-yl)-N,N-dimethylimidazo[1,2-a]pyrazine-6-carboxamide], `CC1CCCN(c2cccc(-c3cnc4cnc(C(N)=O)cn34)n2)C1` (centres unmarked) [IV-205, 3-(6-(3-Methylpiperidin-1-yl)pyridin-2-yl)imidazo[1,2-a]pyrazine-6-carboxamide] is lower in Ki: 0.1 to 1 µM for the first, 0.01 to 0.1 µM for the second.

Compared with `CCN1C(C)CN(c2ccnc(-c3cnc4cnc(C(F)(F)F)cn34)n2)C(C)C1c1cn[nH]c1` (centres unmarked) [IV-292, 3-(4-(4-Ethyl-2,5-dimethyl-3-(1H-pyrazol-4-yl)piperazin-1-yl)pyrimidin-2-yl)-6-(trifluoromethyl)imidazo[1,2-a]pyrazine], `FC(F)(F)c1cn2c(-c3nccc(N4CCC(c5cccnc5)C4)n3)cnc2cn1` (centres unmarked) [IV-646, 3-(4-(3-(Pyridin-3-yl)pyrrolidin-1-yl)pyrimidin-2-yl)-6-(trifluoromethyl)imidazo[1,2-a]pyrazine] is higher in Ki: < 0.01 µM for the first, 0.01 to 0.1 µM for the second. The first binds more tightly here.

`FC(F)(F)c1cn2c(-c3nccc(N4CCCC4)n3)cnc2cn1` [IV-428, 3-(4-(Pyrrolidin-1-yl)pyrimidin-2-yl)-6-(trifluoromethyl)imidazo[1,2-a]pyrazine] and `NC(=O)CC1CCCN(c2ccnc(-c3cnc4cnc(C(F)(F)F)cn34)n2)C1` (centres unmarked) [IV-529, 2-(1-(2-(6-(Trifluoromethyl)imidazo[1,2-a]pyrazin-3-yl)pyrimidin-4-yl)piperidin-3-yl)acetamide] fall in the same range of Ki: 0.1 to 1 µM for the first, 0.1 to 1 µM for the second.

`C[C@H]1CN(c2ccnc(-c3cnc4cnc(C(F)(F)F)cn34)n2)C[C@@H](c2nc(C3CC3)no2)O1` [IV-718] and `COCC1CN(c2ccnc(-c3cnc4cnc(C(F)(F)F)cn34)n2)CCO1` (centres unmarked) [IV-588, 2-(Methoxymethyl)-4-(2-(6-(trifluoromethyl)imidazo[1,2-a]pyrazin-3-yl)pyrimidin-4-yl)morpholine] fall in the same range of Ki: 0.1 to 1 µM for the first, 0.1 to 1 µM for the second.

First: NC(=O)c1cn2c(-c3nccc(N4CCN5C(=O)CCCC5C4)n3)cnc2cn1 (single isomer, unassigned) [IV-274, 3-(4-(6-Oxooctahydro-2H-pyrido[1,2-a]pyrazin-2-yl)pyrimidin-2-yl)imidazo[1,2-a]pyrazine-6-carboxamide]
Second: FC(F)(F)c1cn2c(-c3nccc(N4CCCC(n5cccn5)C4)n3)cnc2cn1 (centres unmarked) [IV-665, 3-(4-(3-(1H-Pyrazol-1-yl)piperidin-1-yl)pyrimidin-2-yl)-6-(trifluoromethyl)imidazo[1,2-a]pyrazine]
The Ki of the first is lower: 0.01 to 0.1 µM for the first, 0.1 to 1 µM for the second.

First: FC(F)c1cn2c(-c3cccc(-c4cccc5[nH]ccc45)n3)cnc2cn1 [IV-233, 3-(6-(1H-Indol-4-yl)pyridin-2-yl)-6-(difluoromethyl)imidazo[1,2-a]pyrazine]
Second: N#CCCN1CCN(c2ccnc(-c3cnc4cnc(C(F)(F)F)cn34)n2)CC1 [IV-620, 3-(4-(2-(6-(Trifluoromethyl)imidazo[1,2-a]pyrazin-3-yl)pyrimidin-4-yl)piperazin-1-yl)propanenitrile]
The Ki of the first is lower: 0.01 to 0.1 µM for the first, 0.1 to 1 µM for the second.

First: COc1cnc(N2CCN(C(C)=O)CC2)nc1-c1cnc2cnc(C(N)=O)cn12 [IV-701, 3-(2-(4-acetylpiperazin-1-yl)-5-methoxypyrimidin-4-yl)imidazo[1,2-a]pyrazine-6-carboxamide]
Second: NC(=O)c1cn2c(-c3nccc(N4CCN5C(=O)CCCC5C4)n3)cnc2cn1 (centres unmarked) [IV-257, 3-(4-(6-Oxooctahydro-2H-pyrido[1,2-a]pyrazin-2-yl)pyrimidin-2-yl)imidazo[1,2-a]pyrazine-6-carboxamide]
The Ki of the first is higher: 0.1 to 1 µM for the first, 0.01 to 0.1 µM for the second. The second binds more tightly here.

In the case of `Cn1cc(C(F)(F)F)nc1C1CCCN(c2ccnc(-c3cnc4cnc(C(F)(F)F)cn34)n2)C1` (centres unmarked) [IV-654, 3-(4-(3-(1-Methyl-4-(trifluoromethyl)-1H-imidazol-2-yl)piperidin-1-yl)pyrimidin-2-yl)-6-(trifluoromethyl)imidazo[1,2-a]pyrazine], the Ki is reported as 0.1 to 1 µM.

Same assay, conditions: compounds of Formula II; 280 μM ATP, 4 nM GCN2 kinase

`CC1C(CO)CCCN1c1cc(-c2cnc3ccc(C(F)F)nn23)ncn1` (centres unmarked) [II-555, (1-(6-(6-(Difluoromethyl)imidazo[1,2-b]pyridazin-3-yl)pyrimidin-4-yl)-2-methylpiperidin-3-yl)methanol] and `CS(=N)(=O)CC1CCCN(c2cc(-c3cnc4ccc(C(F)F)nn34)ncn2)C1` (single isomer, unassigned) [II-636, ((1-(6-(6-(Difluoromethyl)imidazo[1,2-b]pyridazin-3-yl)pyrimidin-4-yl)piperidin-3-yl)methyl)(imino)(methyl)-λ^6-sulfanone] fall in the same range of Ki: 0.01 to 1 µM for the first, 0.01 to 1 µM for the second.

First: CC1(C)CN(c2cc(-c3cnc4ccc(C(F)F)nn34)ncn2)CC(CNS(C)(=O)=O)N1 (centres unmarked) [II-567, N-((4-(6-(6-(Difluoromethyl)imidazo[1,2-b]pyridazin-3-yl)pyrimidin-4-yl)-6,6-dimethylpiperazin-2-yl)methyl)methanesulfonamide]
Second: CC1CC(CNS(C)(=O)=O)CN(c2cc(-c3cnc4ccc(C(F)F)nn34)ncn2)C1C (centres unmarked) [II-591, N-((1-(6-(6-(Difluoromethyl)imidazo[1,2-b]pyridazin-3-yl)pyrimidin-4-yl)-5,6-dimethylpiperidin-3-yl)methyl)methanesulfonamide]
The Ki of the first is higher: 0.01 to 1 µM for the first, < 0.01 µM for the second. The second binds more tightly here.

First: CS(C)(=O)=NC1CC(C(F)(F)F)CN(c2cc(-c3cnc4ccc(C(F)F)nn34)ncn2)C1 (centres unmarked) [II-694, ((1-(6-(6-(Difluoromethyl)imidazo[1,2-b]pyridazin-3-yl)pyrimidin-4-yl)-5-(trifluoromethyl)piperidin-3-yl)imino)dimethyl-λ^6-sulfanone]
Second: CC1CCC(N=S(C)(C)=O)CN1c1cc(-c2cnc3ccc(C(F)F)nn23)ncn1 (centres unmarked) [II-697, [1-[6-[6-(Difluoromethyl)imidazo[1,2-b]pyridazin-3-yl]pyrimidin-4-yl]-6-methyl-3-piperidyl]imino-dimethyl-λ^6-sulfanone]
The Ki of the first is lower: 0.01 to 1 µM for the first, > 1 µM for the second. The first binds more tightly here.

`CS(C)(=O)=NCC1CCCN(c2cc(-c3cnc4ccc(C(F)F)nn34)ncn2)C1` (centres unmarked) [II-574, (((1-(6-(6-(Difluoromethyl)imidazo[1,2-b]pyridazin-3-yl)pyrimidin-4-yl)piperidin-3-yl)methyl)imino)dimethyl-λ^6-sulfanone] and `CS(=O)(=O)NC1CN(c2cc(-c3cnc4ccc(C(F)F)nn34)ncn2)CCC1(F)F` (centres unmarked) [II-596, N-(1-(6-(6-(Difluoromethyl)imidazo[1,2-b]pyridazin-3-yl)pyrimidin-4-yl)-4,4-difluoropiperidin-3-yl)methanesulfonamide] fall in the same range of Ki: 0.01 to 1 µM for the first, 0.01 to 1 µM for the second.

Work on `CS(=N)(=O)c1cccc(-c2cc(-c3cnc4ccc(C(F)F)nn34)ncn2)c1` (centres unmarked) [II-580, (3-(6-(6-(Difluoromethyl)imidazo[1,2-b]pyridazin-3-yl)pyrimidin-4-yl)phenyl)(imino)(methyl)-λ^6-sulfanone] yielded a Ki of 0.01 to 1 µM.

Same assay, conditions: compounds of Formula III; 280 μM ATP, 4 nM GCN2 kinase

In the case of `CC1C(CNS(C)(=O)=O)C(F)(F)C(C)CN1c1cc(-c2cnn3ccc(C(F)F)nc23)ncn1` (centres unmarked) [III-13, N-[[1-[6-[5-(Difluoromethyl)pyrazolo[1,5-a]pyrimidin-3-yl]pyrimidin-4-yl]-4,4-difluoro-2,5-dimethyl-3-piperidyl]methyl]methanesulfonamide], the Ki is reported as < 0.01 µM.

Same assay, conditions: compounds of Formula IV; 280 μM ATP, 4 nM GCN2 kinase

Work on `C[C@H]1C[C@H](c2cn[nH]c2)CN(c2ccnc(-c3cnc4cnc(C(F)(F)F)cn34)n2)C1` [IV-768, 3-(4-((3S,5R)-3-methyl-5-(1H-pyrazol-4-yl)piperidin-1-yl)pyrimidin-2-yl)-6-(trifluoromethyl)imidazo[1,2-a]pyrazine] yielded an IC50 of 0.01 to 1 µM.

Same assay, conditions: compounds of Formula V; 280 μM ATP, 4 nM GCN2 kinase

`CS(C)(=O)=NC1CCCN(c2ccnc(-c3cnc4sc(C(F)(F)F)cn34)n2)C1` (centres unmarked) [Compound V-9, Dimethyl((1-(2-(2-(trifluoromethyl)imidazo[2,1-b]thiazol-5-yl)pyrimidin-4-yl)piperidin-3-yl)imino)-λ^6-sulfanone] was tested, and the Ki was 0.1 to 1 µM.
